In ChEMBL document CHEMBL4665828, “Glucosylpolyphenols as Inhibitors of Aβ-Induced Fyn Kinase Activation and Tau Phosphorylation: Synthesis, Membrane Permeability, and Exploratory Target Assessment within the Scope of Type 2 Diabetes and Alzheimer's Disease” (J Med Chem, 2020):
Active and inactive are the calls of the source. The calls are words filed in the database; no cut-off is given here.

What was measured:
[1] = Aggregation property of the compound in PBS buffer assessed as aggregate formation at 10 to 100 uM incubated for 2 hrs by light scattering spectrofluorimetric assay; format: physicochemical; conditions: dose 10-100 µM
[2] = target: Amyloid-beta precursor protein (Homo sapiens) (UniProt P05067); assay: Inhibition of human amyloid beta (1 to 42) self-induced aggregation at 50 uM by Thioflavin T based fluorometric assay
Chain of Amyloid-beta precursor protein (Homo sapiens) (P05067 whole entry): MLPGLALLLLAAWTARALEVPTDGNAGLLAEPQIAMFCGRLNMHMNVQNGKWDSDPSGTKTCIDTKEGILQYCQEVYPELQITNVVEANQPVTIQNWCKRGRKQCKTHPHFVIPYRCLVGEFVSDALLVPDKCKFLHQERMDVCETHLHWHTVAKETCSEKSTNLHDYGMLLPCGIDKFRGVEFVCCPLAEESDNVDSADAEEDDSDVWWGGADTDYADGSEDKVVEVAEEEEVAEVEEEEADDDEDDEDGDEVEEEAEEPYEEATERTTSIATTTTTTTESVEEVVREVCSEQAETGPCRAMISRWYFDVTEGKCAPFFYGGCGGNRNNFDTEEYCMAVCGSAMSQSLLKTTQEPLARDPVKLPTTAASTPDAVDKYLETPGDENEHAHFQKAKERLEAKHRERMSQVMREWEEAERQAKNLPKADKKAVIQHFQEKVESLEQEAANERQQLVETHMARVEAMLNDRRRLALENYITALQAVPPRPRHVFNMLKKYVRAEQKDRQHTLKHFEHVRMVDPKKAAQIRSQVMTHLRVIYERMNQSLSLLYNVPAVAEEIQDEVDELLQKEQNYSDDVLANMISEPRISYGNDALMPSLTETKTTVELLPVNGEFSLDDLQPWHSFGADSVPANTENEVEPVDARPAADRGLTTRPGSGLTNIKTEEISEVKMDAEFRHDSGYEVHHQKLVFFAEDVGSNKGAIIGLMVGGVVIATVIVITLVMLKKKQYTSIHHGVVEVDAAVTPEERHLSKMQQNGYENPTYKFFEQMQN

[3] = Octanol/water partition coefficient, log D of compound at pH 7.4 at 1 uM incubated for 2 hrs by LC-MS analysis; format: physicochemical
[4] = target: T1, Tyrosine-protein kinase Fyn (Homo sapiens, UniProt P06241); assay: Inhibition of basal Fyn activation in hiPSC neural progenitor cells assessed as reduction in pFyn levels in absence of amyloid beta at 10 uM by DAPI staining based immunofluorescence assay; conditions: induced pluripotent stem cell-derived neuron
Target sequence in this assay (P06241 whole entry): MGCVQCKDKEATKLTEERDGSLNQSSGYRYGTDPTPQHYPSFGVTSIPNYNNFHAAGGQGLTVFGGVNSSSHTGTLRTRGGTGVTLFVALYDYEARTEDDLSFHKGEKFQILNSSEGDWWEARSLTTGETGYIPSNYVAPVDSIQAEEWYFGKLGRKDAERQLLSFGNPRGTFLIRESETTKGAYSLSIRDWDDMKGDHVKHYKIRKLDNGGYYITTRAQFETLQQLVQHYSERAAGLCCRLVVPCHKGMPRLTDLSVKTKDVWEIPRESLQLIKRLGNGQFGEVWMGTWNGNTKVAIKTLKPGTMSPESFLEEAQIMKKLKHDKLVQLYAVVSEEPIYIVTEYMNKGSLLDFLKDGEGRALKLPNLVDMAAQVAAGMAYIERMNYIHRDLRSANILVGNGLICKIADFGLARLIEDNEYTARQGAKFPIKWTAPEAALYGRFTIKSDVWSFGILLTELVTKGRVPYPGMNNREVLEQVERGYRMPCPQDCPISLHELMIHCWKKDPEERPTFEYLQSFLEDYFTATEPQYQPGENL

[5] = Cytotoxicity against hiPSC neural cells assessed as reduction in cell viability at 10 uM incubated for 24 hrs by MTT assay; format: cell-based; conditions: human, induced pluripotent stem cell-derived neuron
[6] = target: Acetylcholinesterase (Electrophorus electricus) (UniProt O42275); assay: Inhibition of electric eel AChE at 100 uM using acetylthiocholine iodide as substrate by Ellman's colorimetric analysis relative to control
Chain of Acetylcholinesterase (Electrophorus electricus) (O42275 24-633 limits assumed): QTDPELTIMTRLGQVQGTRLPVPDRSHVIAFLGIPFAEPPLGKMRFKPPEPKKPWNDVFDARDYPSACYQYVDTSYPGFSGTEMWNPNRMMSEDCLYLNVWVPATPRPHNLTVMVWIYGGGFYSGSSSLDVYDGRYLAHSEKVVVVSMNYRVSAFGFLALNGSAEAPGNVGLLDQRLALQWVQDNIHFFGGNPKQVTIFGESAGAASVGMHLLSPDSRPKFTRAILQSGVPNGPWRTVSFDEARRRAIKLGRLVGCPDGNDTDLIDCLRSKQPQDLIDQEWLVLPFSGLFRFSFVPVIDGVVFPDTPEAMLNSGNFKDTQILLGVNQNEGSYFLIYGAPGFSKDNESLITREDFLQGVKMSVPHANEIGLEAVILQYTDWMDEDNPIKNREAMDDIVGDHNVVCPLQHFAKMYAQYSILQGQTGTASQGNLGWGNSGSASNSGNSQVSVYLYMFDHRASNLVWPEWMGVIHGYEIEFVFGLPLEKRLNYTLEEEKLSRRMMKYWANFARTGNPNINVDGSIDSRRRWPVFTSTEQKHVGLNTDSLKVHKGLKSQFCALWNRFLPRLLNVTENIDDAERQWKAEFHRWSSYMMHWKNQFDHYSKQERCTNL

[7] = target: Cholinesterase (Equus caballus) (UniProt P81908); assay: Inhibition of equine serum BuChE at 100 uM using butyrylthiocholine iodide as substrate by Ellman's colorimetric analysis relative to control
Chain of Cholinesterase (Equus caballus) (P81908 whole entry): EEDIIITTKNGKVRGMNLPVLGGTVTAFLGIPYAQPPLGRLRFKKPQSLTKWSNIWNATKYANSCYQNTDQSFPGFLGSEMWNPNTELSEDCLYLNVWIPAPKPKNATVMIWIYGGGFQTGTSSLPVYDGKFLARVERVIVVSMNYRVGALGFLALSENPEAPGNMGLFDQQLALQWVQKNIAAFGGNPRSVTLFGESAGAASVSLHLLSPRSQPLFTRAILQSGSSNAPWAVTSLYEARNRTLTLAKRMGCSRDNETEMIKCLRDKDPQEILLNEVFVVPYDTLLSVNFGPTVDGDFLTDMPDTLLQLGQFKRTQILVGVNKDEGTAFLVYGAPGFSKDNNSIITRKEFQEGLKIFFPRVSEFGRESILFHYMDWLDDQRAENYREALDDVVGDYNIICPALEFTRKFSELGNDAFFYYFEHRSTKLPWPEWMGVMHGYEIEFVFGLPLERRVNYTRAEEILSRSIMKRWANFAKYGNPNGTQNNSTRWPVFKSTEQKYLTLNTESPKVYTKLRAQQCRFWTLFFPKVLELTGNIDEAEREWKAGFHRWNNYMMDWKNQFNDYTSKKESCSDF

[8] = Aggregation property of the compound in PBS buffer at 10 to 100 uM incubated for 2 hrs by UV/Vis double beam spectrophotometric method; format: physicochemical; conditions: dose 10-100 µM
[9] = target: T1, Tyrosine-protein kinase Fyn; assay: Inhibition of natural amyloid beta (1 to 42) -induced Fyn activation in hiPSC neural progenitor cells assessed as reduction in Fyn production at 10 uM preincubated fot 45 mins followed by amyloid beta addition and measured after 15 mins by DAPI/Alexa fluor 594 immunostaining based assay; conditions: Induced pluripotent stem cell-derived neuron, time 60.0 min
Target sequence in this assay (P06241 2-537 limits assumed): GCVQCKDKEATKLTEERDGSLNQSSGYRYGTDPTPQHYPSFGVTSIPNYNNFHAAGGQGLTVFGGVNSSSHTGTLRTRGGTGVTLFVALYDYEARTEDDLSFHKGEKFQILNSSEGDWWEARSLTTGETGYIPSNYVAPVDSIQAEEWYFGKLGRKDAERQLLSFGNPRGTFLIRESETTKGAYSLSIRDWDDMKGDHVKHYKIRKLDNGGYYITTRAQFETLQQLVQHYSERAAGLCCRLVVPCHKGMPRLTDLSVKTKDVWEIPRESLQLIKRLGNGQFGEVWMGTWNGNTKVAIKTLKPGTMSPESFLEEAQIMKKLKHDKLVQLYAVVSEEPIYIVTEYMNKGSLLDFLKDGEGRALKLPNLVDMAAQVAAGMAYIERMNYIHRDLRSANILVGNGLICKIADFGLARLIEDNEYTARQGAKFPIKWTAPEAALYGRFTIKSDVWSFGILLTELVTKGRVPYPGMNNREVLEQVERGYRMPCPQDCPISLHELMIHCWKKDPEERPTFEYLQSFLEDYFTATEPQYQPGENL

[10] = Aqueous solubility of the compound in 5 % DMSO at 50 to 100 uM incubated for 2 hrs; format: physicochemical; conditions: buffer, dose 50-100 µM
[11] = target: T1, Tyrosine-protein kinase Fyn; assay: Inhibition of amyloid beta-induced Fyn activation in hiPSC neural cells assessed as reduction in tau phosphorylation at Thr 181 residue at 10 uM measured after 4 days by DAPI/Alexa fluor 594 staining based immunocytochemistry analysis; conditions: Induced pluripotent stem cell-derived neuron, time 4.0 day
Target sequence in this assay (P06241 2-537 limits assumed): as above

[12] = pampa, pH 7.4, 16 h
[13] = buffer, 100 µM
[14] = Membrane retention of compound assessed as partial membrane retention at pH 7.4 by LC-MS based PAMPA assay; format: ADME
[15] = Membrane retention of compound at pH 7.4 incubated for 16 hrs by PAMPA assay; format: ADME; conditions: pH 7.4, 16 h
[16] = Cytotoxicity against hiPSC neural cells assessed as reduction in cell viability up to 100 uM incubated for 24 hrs by MTT assay; format: cell-based; conditions: human, induced pluripotent stem cell-derived neuron

Row | SMILES | Activity [1] | inhibition [2] | logD at 2 h, 1 µM [3] | inhibition (INH) [4] | Activity [5] | inhibition [6] | inhibition [7] | Activity [8] | inhibition [9] | solubility [10] | inhibition [11] | logPeff [12] | solubility [13] | Drug uptake [14] | Drug uptake [15] | Activity [16]
1 | CC(=O)N1CCN(c2ccc(OCC3COC(Cn4ccnc4)(c4ccc(Cl)cc4Cl)O3)cc2)CC1 (centres undefined) [KETOCONAZOLE] | Not Active |  |  |  |  |  |  |  |  |  |  |  |  |  |  | 
2 | O=C(Cc1ccccc1)c1c(O)cc(O)cc1O |  | inactive |  |  |  |  |  |  |  |  |  |  |  |  |  | 
3 | O=C(Oc1ccc(OC(=O)c2ccccc2)c([C@@H]2O[C@H](CO)[C@@H](O)[C@H](O)[C@H]2O)c1)c1ccccc1 |  |  | 2 | Not Active | Non-Toxic | inactive | 21% |  |  |  |  |  |  |  |  | 
4 | O=C(Oc1ccc(O)c([C@@H]2O[C@H](CO)[C@@H](O)[C@H](O)[C@H]2O)c1)c1ccccc1 | Not Active | inactive | < 0.5 | Not Active | Non-Toxic | inactive | inactive | Not Active | Active |  |  |  |  |  |  | 
5 | O=c1c(-c2ccc(O)cc2)coc2c([C@@H]3O[C@H](CO)[C@@H](O)[C@H](O)[C@H]3O)c(O)cc(O)c12 |  |  | -0.1 |  |  |  |  |  |  |  |  |  |  |  |  | 
6 | COC[C@H]1O[C@@H](c2cc(OC(=O)c3ccccc3)ccc2OC(=O)c2ccccc2)[C@H](OC)[C@@H](OC)[C@@H]1OC |  |  | > 2.5 | Not Active | Non-Toxic | 19% | 16% |  | Active | Insoluble | Active | Not Active | Insoluble |  |  | 
7 | OC[C@H]1O[C@@H](c2c(O)ccc3ccccc23)[C@H](O)[C@@H](O)[C@@H]1O | Not Active | inactive |  | Not Active | Non-Toxic | inactive | 10% | Not Active | Active |  |  |  |  |  |  | 
8 | Oc1ccc(OC2O[C@H](COCc3ccccc3)[C@@H](OCc3ccccc3)[C@H](OCc3ccccc3)[C@H]2OCc2ccccc2)cc1 (some centres undefined) |  | inactive |  |  |  |  |  |  |  |  |  |  |  |  |  | 
9 | COC[C@H]1O[C@@H](c2ccc(OC(=O)c3ccccc3)c(OC(=O)c3ccccc3)c2)[C@H](OC)[C@@H](OC)[C@@H]1OC |  | inactive | > 2.5 | Not Active | Non-Toxic | inactive | 12% |  | Active | Insoluble | Active |  | Insoluble | Active | Active | 
10 | O=C(Oc1ccc([C@@H]2O[C@H](CO)[C@@H](O)[C@H](O)[C@H]2O)cc1OC(=O)c1ccccc1)c1ccccc1 | Not Active | inactive |  | Not Active | Non-Toxic | inactive | 39% | Not Active | Active |  | Active |  |  |  |  | Non-Toxic
11 | COC[C@H]1O[C@@H](c2ccc(O)c(O)c2)[C@H](OC)[C@@H](OC)[C@@H]1OC |  | inactive | 1.1 | Not Active | Non-Toxic | 15% | 16% |  |  |  |  |  |  |  |  | 
